Measurements as given in article PMC8343220, “The selectivity of α‐adrenoceptor agonists for the human α1A, α1B, and α1D‐adrenoceptors” (Pharmacology Research & Perspectives, 2021).
Marks after values point to notes of the source that are not given here.

Legend:
human α1B‐adrenoceptor [1] = target: T1, human α1B‐adrenoceptor (Homo sapiens, UniProt P35368); assay: ERK1/2‐phosphorylation (Surefire Alphascreen), CHO‐α1B cells; type: cell-based
T1 construct: expressed in transfected cells; host or cells: CHO-K1
T1 sequence (P35368 1-520): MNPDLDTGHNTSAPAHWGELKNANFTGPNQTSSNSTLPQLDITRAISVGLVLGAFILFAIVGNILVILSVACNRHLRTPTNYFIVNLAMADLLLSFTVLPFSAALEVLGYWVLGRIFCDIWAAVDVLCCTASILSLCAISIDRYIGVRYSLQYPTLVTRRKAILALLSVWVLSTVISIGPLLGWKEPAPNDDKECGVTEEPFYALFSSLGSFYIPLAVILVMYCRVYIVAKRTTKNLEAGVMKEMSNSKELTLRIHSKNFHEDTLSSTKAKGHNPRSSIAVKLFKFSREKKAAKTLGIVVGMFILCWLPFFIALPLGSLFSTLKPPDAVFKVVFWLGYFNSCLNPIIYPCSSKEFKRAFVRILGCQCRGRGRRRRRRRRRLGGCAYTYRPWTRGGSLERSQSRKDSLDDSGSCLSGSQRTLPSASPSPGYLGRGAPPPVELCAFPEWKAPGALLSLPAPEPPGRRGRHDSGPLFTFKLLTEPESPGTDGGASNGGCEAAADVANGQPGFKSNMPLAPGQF

[2] = target: T2, human α1D‐adrenoceptor (full length) (Homo sapiens, UniProt P25100); assay: ^3H‐cAMP accumulation, CHO‐α1D cells; type: cell-based; settings: cAMP accumulation without forskolin
T2 construct: human α1D‐adrenoceptor (full length) were used; expressed in transfected cells; host or cells: CHO-K1
T2 sequence (P25100 1-572): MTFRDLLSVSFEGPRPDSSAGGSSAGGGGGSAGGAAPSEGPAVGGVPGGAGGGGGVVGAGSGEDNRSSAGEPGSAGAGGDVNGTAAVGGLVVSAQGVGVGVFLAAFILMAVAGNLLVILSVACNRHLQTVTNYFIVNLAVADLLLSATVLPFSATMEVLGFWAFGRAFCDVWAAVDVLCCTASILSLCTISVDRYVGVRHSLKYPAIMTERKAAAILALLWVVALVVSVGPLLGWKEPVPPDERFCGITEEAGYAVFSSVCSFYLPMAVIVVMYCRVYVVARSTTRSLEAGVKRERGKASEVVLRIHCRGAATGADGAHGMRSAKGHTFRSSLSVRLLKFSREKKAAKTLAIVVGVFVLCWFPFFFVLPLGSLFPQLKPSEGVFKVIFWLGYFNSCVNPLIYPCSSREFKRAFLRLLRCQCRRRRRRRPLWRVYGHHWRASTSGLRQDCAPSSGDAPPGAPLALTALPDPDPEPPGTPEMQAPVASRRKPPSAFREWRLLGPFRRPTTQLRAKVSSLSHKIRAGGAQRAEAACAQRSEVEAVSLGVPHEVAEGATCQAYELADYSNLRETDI

[3] = target: T2, human α1D‐adrenoceptor (full length); assay: ^3H‐prazosin whole‐cell radioligand binding, CHO‐α1D cells
human α1A‐adrenoceptor [4] = target: T3, human α1A‐adrenoceptor (Homo sapiens, UniProt P35348); assay: ^3H‐cAMP accumulation in the presence of 10 μM forskolin, CHO‐α1A cells; type: cell-based; settings: CHO‐α1A cells
T3 construct: expressed in transfected cells; host or cells: CHO-K1
T3 sequence (P35348 1-466): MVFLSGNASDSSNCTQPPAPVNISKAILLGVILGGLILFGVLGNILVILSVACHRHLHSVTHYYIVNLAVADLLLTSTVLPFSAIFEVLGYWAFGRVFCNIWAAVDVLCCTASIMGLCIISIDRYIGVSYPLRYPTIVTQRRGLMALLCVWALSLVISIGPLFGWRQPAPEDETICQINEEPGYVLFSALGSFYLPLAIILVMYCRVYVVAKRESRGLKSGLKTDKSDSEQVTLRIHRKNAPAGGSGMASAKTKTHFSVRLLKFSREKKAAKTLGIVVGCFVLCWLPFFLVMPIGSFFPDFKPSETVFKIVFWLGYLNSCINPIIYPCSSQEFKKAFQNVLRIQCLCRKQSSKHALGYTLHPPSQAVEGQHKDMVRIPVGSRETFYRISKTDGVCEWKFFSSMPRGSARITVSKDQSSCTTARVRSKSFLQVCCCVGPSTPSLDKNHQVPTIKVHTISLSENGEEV

human α1B‐adrenoceptor [5] = target: T1, human α1B‐adrenoceptor; assay: Intracellular free calcium mobilization, CHO‐α1B cells; type: cell-based
human α1A‐adrenoceptor [6] = target: T3, human α1A‐adrenoceptor; assay: ^3H‐prazosin whole‐cell radioligand binding, CHO‐α1A cells
human α1B‐adrenoceptor [7] = target: T1, human α1B‐adrenoceptor; assay: ^3H‐prazosin whole‐cell radioligand binding, CHO‐α1B cells
human α1A‐adrenoceptor [8] = target: T3, human α1A‐adrenoceptor; assay: ^3H‐cAMP accumulation, CHO‐α1A cells; type: cell-based; settings: CHO‐α1A cells
human α1B‐adrenoceptor [9] = target: T1, human α1B‐adrenoceptor; assay: ^3H‐cAMP accumulation in the presence of 10 μM forskolin, CHO‐α1B cells; type: cell-based; settings: CHO‐α1B cells
[10] = target: T2, human α1D‐adrenoceptor (full length); assay: Intracellular free calcium mobilization, CHO‐α1D cells; type: cell-based
[11] = target: T2, human α1D‐adrenoceptor (full length); assay: ERK1/2‐phosphorylation (Surefire Alphascreen), CHO‐α1D cells; type: cell-based
[12] = target: T2, human α1D‐adrenoceptor (full length); assay: ^3H‐cAMP accumulation in the presence of 10 μM forskolin, CHO‐α1D cells; type: cell-based; settings: CHO‐α1D cells
human α1B‐adrenoceptor [13] = target: T1, human α1B‐adrenoceptor; assay: ^3H‐cAMP accumulation, CHO‐α1B cells; type: cell-based; settings: CHO‐α1B cells; response at 100 µM ligand (no EC50 given)
human α1A‐adrenoceptor [14] = target: T3, human α1A‐adrenoceptor; assay: ERK1/2‐phosphorylation (Surefire Alphascreen), CHO‐α1A cells; type: cell-based
human α1A‐adrenoceptor [15] = target: T3, human α1A‐adrenoceptor; assay: Intracellular free calcium mobilization, CHO‐α1A cells; type: cell-based
[16] = fold increase of the forskolin response

Question: With `CC(N)C(O)c1ccc(O)c(O)c1` (stereo not drawn) [α‐Methylnorepinephrine] as the compound, how does the “ERK1/2‐phosphorylation % PDBu” value (human α1B‐adrenoceptor [1]) read?
Answer: 90.6 ± 4.4%

Question: What about the “ERK1/2‐phosphorylation Log EC50” value (human α1B‐adrenoceptor [1]) of the same compound?
Answer: −6.75 ± 0.13

Question: What about the “cAMP Log EC50” value [2] of the same compound?
Answer: No response

Question: What about the “3H‐prazosin binding Log KD” value [3] of the same compound?
Answer: −4.84

Question: What about the “Affinity selectivity ratio α1A vs α1D” value [3] of the same compound?
Answer: 3.3 fold

Question: What about the “Affinity selectivity ratio α1B vs α1D” value [3] of the same compound?
Answer: >69.2 fold

Question: What about the “Log KD α1D, ^3H‐prazosin whole cell binding” value [3] of the same compound?
Answer: −4.84 ± 0.14^early plateau

Question: And the “cAMP accumulation (in presence of forskolin) Log EC50” value (human α1A‐adrenoceptor [4]; 10 μM forskolin)?
Answer: −5.74 ± 0.10

Question: And the “cAMP accumulation (in presence of forskolin) Fold increase” value (human α1A‐adrenoceptor [4]; [16])?
Answer: 2.49 ± 0.05 fold

Question: What about the “Intracellular calcium release % ionomycin” value (human α1B‐adrenoceptor [5]) of the same compound?
Answer: 69.1 ± 2.6%

Question: What about the “Intracellular calcium release Log EC50” value (human α1B‐adrenoceptor [5]) of the same compound?
Answer: −8.10 ± 0.11

Question: What about the “Log efficacy ratio KD /EC50” value (human α1B‐adrenoceptor [5]) of the same compound?
Answer: >5.10

Question: And the “Affinity selectivity ratio α1A vs α1B” value (human α1A‐adrenoceptor [6])?
Answer: >20.9 fold

Question: What about the “Log KD α1A, ^3H‐prazosin whole cell binding” value (human α1A‐adrenoceptor [6]) of the same compound?
Answer: −4.32 ± 0.04

Question: What about the “Log IC50 α1B, ^3H‐prazosin whole cell binding” value (human α1B‐adrenoceptor [7]) of the same compound?
Answer: IC50>−3

Question: And the “cAMP accumulation Log EC50” value (human α1A‐adrenoceptor [8]; 5 h)?
Answer: −5.09 ± 0.06

Question: And the “cAMP accumulation % forskolin” value (human α1A‐adrenoceptor [8]; % of 10 µM forskolin response)?
Answer: 166.8 ± 7.4%

Question: What about the “cAMP accumulation (in presence of forskolin) Fold increase” value (human α1B‐adrenoceptor [9]; [16]) of the same compound?
Answer: 3.09 ± 0.21 fold

Question: And the “cAMP accumulation (in presence of forskolin) Log EC50” value (human α1B‐adrenoceptor [9]; in presence of forskolin)?
Answer: −5.56 ± 0.05

Question: And the “Intracellular calcium release % ionomycin” value [10]?
Answer: 29.9 ± 3.6%

Question: What about the “Intracellular calcium release Log EC50” value [10] of the same compound?
Answer: −7.02 ± 0.10

Question: And the “Log efficacy ratio KD /EC50” value [10]?
Answer: 2.18

Question: What about the “ERK1/2‐phosphorylation % PDBu” value [11] of the same compound?
Answer: 27.7 ± 4.9%

Question: What about the “ERK1/2‐phosphorylation Log EC50” value [11] of the same compound?
Answer: −5.74 ± 0.11

Question: And the “cAMP (in presence of forskolin) Fold increase” value [12, 16]?
Answer: 1.23 ± 0.06

Question: And the “cAMP (in presence of forskolin) Log EC50” value ([12]; in presence of forskolin, log values given negative)?
Answer: −6.05 ± 0.12

Question: What about the “cAMP accumulation % forskolin at 100 µM” value (human α1B‐adrenoceptor [13]) of the same compound?
Answer: 129.7 ± 20.5%

Question: And the “ERK1/2‐phosphorylation % PDBu” value (human α1A‐adrenoceptor [14])?
Answer: 87.5 ± 6.3%

Question: What about the “ERK1/2‐phosphorylation Log EC50” value (human α1A‐adrenoceptor [14]) of the same compound?
Answer: −6.86 ± 0.12 ^a

Question: And the “Intracellular calcium release % ionomycin” value (human α1A‐adrenoceptor [15])?
Answer: 65.2 ± 2.6%

Question: And the “Intracellular calcium release Log EC50” value (human α1A‐adrenoceptor [15])?
Answer: −7.69 ± 0.07

Question: And the “Log efficacy ratio KD /EC50” value (human α1A‐adrenoceptor [15])?
Answer: 3.37
